Reference: patent US11110103B2, “Inhibitors of glucocorticoid receptor” (ORIC Pharmaceuticals, Inc., priority 2015, dated 2021)

Each compound was assayed against T1, GR (Homo sapiens, UniProt P04150) (assay: In Vitro GR Luciferase Reporter Assay (antagonist assay)). Details: CHO-K1-GR-MMTV-Luc reporter cells, 10 nM Dexamethasone, 18-24 hours.
T1 construct: expressed in transfected cells; host or cells: CHO-K1 (CHO-K1-GR-MMTV-Luc reporter cells)
T1 sequence (P04150 1-777): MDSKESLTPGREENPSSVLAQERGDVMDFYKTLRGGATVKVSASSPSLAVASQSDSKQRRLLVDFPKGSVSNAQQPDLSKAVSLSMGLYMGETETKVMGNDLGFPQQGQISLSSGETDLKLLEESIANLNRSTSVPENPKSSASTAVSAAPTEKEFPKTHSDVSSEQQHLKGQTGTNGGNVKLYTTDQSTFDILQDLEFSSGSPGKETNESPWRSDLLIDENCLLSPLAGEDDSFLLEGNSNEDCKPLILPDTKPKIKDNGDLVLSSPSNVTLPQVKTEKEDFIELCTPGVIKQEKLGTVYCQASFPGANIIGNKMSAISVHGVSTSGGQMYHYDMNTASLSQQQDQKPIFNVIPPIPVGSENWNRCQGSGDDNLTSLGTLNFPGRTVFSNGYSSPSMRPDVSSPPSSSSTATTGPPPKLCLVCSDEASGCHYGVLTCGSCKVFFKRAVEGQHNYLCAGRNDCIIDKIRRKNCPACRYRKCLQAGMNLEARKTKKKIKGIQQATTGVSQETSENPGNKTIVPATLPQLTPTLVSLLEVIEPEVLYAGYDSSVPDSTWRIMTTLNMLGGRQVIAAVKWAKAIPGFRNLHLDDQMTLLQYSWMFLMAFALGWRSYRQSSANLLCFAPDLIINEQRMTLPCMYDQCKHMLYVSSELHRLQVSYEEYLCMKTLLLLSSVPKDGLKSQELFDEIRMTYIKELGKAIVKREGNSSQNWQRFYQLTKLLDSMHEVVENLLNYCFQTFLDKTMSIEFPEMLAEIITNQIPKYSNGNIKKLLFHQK
Assay type: cell-based
Experimental: Cell Line: CHO-K1-GR-MMTV-Luc reporter cells
Culture Media: DMEM (with phenol red)+10% FBS
Assay Media: DMEM (without phenol red)+10% CSS
Culture CHO-K1-GR-MMTV-Luc reporter cells in 15 cm plates in Culture Media at conditions less than 90% confluence.
Prepare 200×DMSO 1:5 serial dilutions of control and test compounds in 96-well non-sterile V bottom plate in DMSO, 8 serial dilutions for each compound.
Add compounds: 5 ul of assay media diluted compounds were added to appropriate wells and followed a quick spin (1000 rpm, 10 sec) to bring media and cells to the bottom of plate. The plates were covered with SealMate film to avoid evaporation and placed in 37° C. incubator for approximately 18-24 hours.
Read plates: Equilibrate appropriate amount of Promega OneGlo luciferase reagent to room temperature. Remove the plates from incubator and add 25 uL of OneGlo reagent/well by multiple channel pipette and read the plates with Tecan F500 luminometer within 3 minutes.
The ability of the compounds disclosed herein to inhibit GR activity was quantified and the respective IC50 value was determined.

Row | SMILES | IC50 [µM]
1 | CC#C[C@]1(O)CC[C@H]2[C@@H]3CCC4=CC(=O)CCC4=C3[C@@H](c3cccc(C4CC4)c3)C[C@@]21C | < 0.1
2 | CC#C[C@]1(O)[C@H](C)C[C@H]2[C@@H]3CCC4=CC(=O)CCC4=C3[C@@H](c3ccc(N4CCOC[C@H]4C)cc3)C[C@@]21C [drawing 227] | < 0.1
3 | CC#C[C@]1(O)CC[C@H]2[C@@H]3CCC4=CC(=O)CCC4=C3[C@@H](c3ccc(C)c(OC)c3)C[C@@]21C | < 0.1
4 | CC#C[C@]1(O)[C@H](C)C[C@H]2[C@@H]3CCC4=CC(=O)CCC4=C3[C@@H](c3ccc(S(=O)(=O)N4CCCCC4)cc3)C[C@@]21C [drawing 226] | < 0.1
5 | [2H]C([2H])([2H])C#C[C@]1(O)CC[C@H]2[C@@H]3CCC4=CC(=O)CCC4=C3[C@@H](c3ccc4c(c3)OCCO4)C[C@@]21C | < 0.1
6 | CC#C[C@]1(O)[C@H](C)C[C@H]2[C@@H]3CCC4=CC(=O)CCC4=C3[C@@H](c3ccc(S(=O)(=O)N(C)C)cc3)C[C@@]21C | < 0.1
7 | CC#C[C@]1(O)CC[C@H]2[C@@H]3CCC4=CC(=O)CCC4=C3[C@@H](c3ccc(Cl)c(C(C)C)c3)C[C@@]21C [drawing 200] | < 0.1
8 | CC#C[C@]1(O)CC[C@H]2[C@@H]3CCC4=CC(=O)CCC4=C3[C@@H](c3ccc(Cl)c(C4CC4)c3)C[C@@]21C | > 0.1
9 | CC#C[C@]1(OC(C)=O)CC[C@H]2[C@@H]3CCC4=CC(=O)CCC4=C3[C@@H](c3cc(F)c(C)c(F)c3)C[C@@]21C | < 0.1
10 | CC#C[C@]1(O)CC[C@H]2[C@@H]3CCC4=CC(=O)CCC4=C3[C@@H](c3ccc(Cl)c(N(C)C)c3)C[C@@]21C | > 0.1
11 | CC#C[C@]1(OC(=O)CC)CC[C@H]2[C@@H]3CCC4=CC(=O)CCC4=C3[C@@H](c3cc(F)c(C)c(F)c3)C[C@@]21C | > 0.1
12 | CC#C[C@]1(O)CC[C@H]2[C@@H]3CCC4=CC(=O)CCC4=C3[C@@H](c3ccc(C(C)C)c(OC)c3)C[C@@]21C | < 0.1
13 | CC#C[C@]1(O)[C@H](CC)C[C@H]2[C@@H]3CCC4=CC(=O)CCC4=C3[C@@H](c3ccc(N(C)C)cc3)C[C@@]21C [drawing 225] | < 0.1
14 | CC#C[C@]1(O)CC[C@H]2[C@@H]3CCC4=CC(=O)CCC4=C3[C@@H](c3ccc(C)c(N(C)C)c3)C[C@@]21C | < 0.1
15 | CC#C[C@]1(O)CC[C@H]2[C@@H]3CCC4=CC(=O)CCC4=C3[C@@H](c3ccc4c(c3)OCCO4)C[C@@]21C [drawing 210] | < 0.1
16 | CC#C[C@]1(O)CC[C@H]2[C@@H]3CCC4=CC(=O)CCC4=C3[C@@H](c3cccc(COC)c3)C[C@@]21C | < 0.1
17 | CC#C[C@]1(O)[C@H](C)C[C@H]2[C@@H]3CCC4=CC(=O)CCC4=C3[C@@H](c3ccc(C)c(F)c3)C[C@@]21C | < 0.1
18 | CC#C[C@]1(O)CC[C@H]2[C@@H]3CCC4=CC(=O)CCC4=C3[C@@H](c3ccc4c(c3)OCCCO4)C[C@@]21C | < 0.1
19 | CC#C[C@]1(O)CC[C@H]2[C@@H]3CCC4=CC(=O)CCC4=C3[C@@H](c3cccc(C(C)C)c3)C[C@@]21C [drawing 185] | < 0.1
20 | CC#C[C@]1(O)CC[C@H]2[C@@H]3CCC4=CC(=O)CCC4=C3[C@@H](c3cccc(OC(C)C)c3)C[C@@]21C | > 0.1
21 | CC#C[C@]1(O)[C@H](C)C[C@H]2[C@@H]3CCC4=CC(=O)CCC4=C3[C@@H](c3cc(F)c(C)c(F)c3)C[C@@]21C | > 0.1
22 | CC#C[C@]1(O)[C@H](CC)C[C@H]2[C@@H]3CCC4=CC(=O)CCC4=C3[C@@H](c3ccccc3)C[C@@]21C | > 0.1
23 | CC#C[C@]1(O)CC[C@H]2[C@@H]3CCC4=CC(=O)CCC4=C3[C@@H](c3ccc(N(C)C)c(C(C)C)c3)C[C@@]21C [drawing 203] | > 0.1
24 | CC#C[C@]1(O)CC[C@H]2[C@@H]3CCC4=CC(=O)CCC4=C3[C@@H](c3ccc(C)c(N4CCC4)c3)C[C@@]21C | > 0.1
25 | CC#C[C@]1(O)CC[C@H]2[C@@H]3CCC4=CC(=O)CCC4=C3[C@@H](c3ccc(NS(=O)(=O)c4ccc(C)cc4)cc3)C[C@@]21C | > 0.1
26 | CC#C[C@]1(O)[C@H](C)C[C@H]2[C@@H]3CCC4=CC(=O)CCC4=C3[C@@H](c3ccc(S(=O)(=O)C(C)(C)C)cc3)C[C@@]21C | > 0.1
27 | CC#C[C@]1(O)[C@H](C)C[C@H]2[C@@H]3CCC4=CC(=O)CCC4=C3[C@@H](c3cc(F)c(N(C)C)c(F)c3)C[C@@]21C | < 0.1
28 | CC#C[C@]1(O)C2(CC2)C[C@H]2[C@@H]3CCC4=CC(=O)CCC4=C3[C@@H](c3ccc(S(=O)(=O)N(C)C)cc3)C[C@@]21C | < 0.1
29 | CC#C[C@]1(O)[C@H](C)C[C@H]2[C@@H]3CCC4=CC(=O)CCC4=C3[C@@H](c3c(F)cc(N4CCC4)cc3F)C[C@@]21C | < 0.1
30 | CC#C[C@]1(OC)CC[C@H]2[C@@H]3CCC4=CC(=O)CCC4=C3[C@@H](c3cc(F)c(C)c(F)c3)C[C@@]21C | > 0.1

Results, then the compound that gave them:

Row | IC50 [µM] | SMILES
31 | < 0.1 | CC#C[C@]1(O)CC[C@H]2[C@@H]3CCC4=CC(=O)CCC4=C3[C@@H](c3c(F)cc(CC)cc3F)C[C@@]21C
32 | < 0.1 | CC#C[C@]1(O)CC[C@H]2[C@@H]3CCC4=CC(=O)CCC4=C3[C@@H](c3ccc(C)c(F)c3)C[C@@]21C
33 | < 0.1 | CC#C[C@]1(O)CC[C@H]2[C@@H]3CCC4=CC(=O)CCC4=C3[C@@H](c3c(F)cc(N(C)CC)cc3F)C[C@@]21C
34 | < 0.1 | CC#C[C@]1(O)CC[C@H]2[C@@H]3CCC4=CC(=O)CCC4=C3[C@@H](c3c(F)cc(N4CCOCC4)cc3F)C[C@@]21C
35 | < 0.1 | CC#C[C@]1(O)CC[C@H]2[C@@H]3CCC4=CC(=O)CCC4=C3[C@@H](c3cc(F)c(N(C)C)c(F)c3)C[C@@]21C
36 | < 0.1 | CC#C[C@]1(O)CC[C@H]2[C@@H]3CCC4=CC(=O)CCC4=C3[C@@H](c3cc(F)c(N(C)C)cc3F)C[C@@]21C
37 | < 0.1 | CC#C[C@]1(O)CC[C@H]2[C@@H]3CCC4=CC(=O)CCC4=C3[C@@H](c3cccc(CC)c3)C[C@@]21C
38 | < 0.1 | CC#C[C@]1(O)CC[C@H]2[C@@H]3CCC4=CC(=O)CCC4=C3[C@@H](c3ccc(F)c(C#N)c3)C[C@@]21C [drawing 199]
39 | > 0.1 | CC#C[C@]1(O)CC[C@H]2[C@@H]3CCC4=CC(=O)CCC4=C3[C@@H](c3ccc(F)c(OC)c3)C[C@@]21C
40 | < 0.1 | CC#C[C@]1(O)CC[C@H]2[C@@H]3CCC4=CC(=O)CCC4=C3[C@@H](c3ccc(C)c(C)c3)C[C@@]21C [drawing 192]
41 | > 0.1 | CC#C[C@]1(O)CC[C@H]2[C@@H]3CCC4=CC(=O)CCC4=C3[C@@H](c3ccc(Cl)c(OC)c3)C[C@@]21C [drawing 204]
42 | < 0.1 | CC#C[C@]1(O)CC[C@H]2[C@@H]3CCC4=CC(=O)CCC4=C3[C@@H](c3cc(F)cc(F)c3)C[C@@]21C [drawing 196]
43 | < 0.1 | CC#C[C@]1(O)CC[C@H]2[C@@H]3CCC4=CC(=O)CCC4=C3[C@@H](c3cc(F)c(C)c(F)c3)C[C@@]21C [drawing 209]
44 | < 0.1 | CC#C[C@]1(O)CC[C@H]2[C@@H]3CCC4=CC(=O)CCC4=C3[C@@H](c3cccc(OCC)c3)C[C@@]21C [drawing 186]
